In patent US7648993B2, “Methods of treating disorders with Group I mGluR antagonists” (Brown University, priority 2001, dated 2010):

How the values were obtained:
[1] = system: hippocampal area CA1 slices; experiment: Sharp electrode EPSP and whole cell voltage-clamp EPSC recordings in hippocampal slices; assay type: cell-based, Long Evans rats; conditions: DHPG 50 μM, 5 min
Procedure: (§1) All animals were used in accordance with procedures approved by the Brown University Institutional Animal Care and Use Committee. Hippocampal slices were prepared from postnatal day 21-30 (P21-30) Long Evans rats (Charles River, Cambridge, Mass.) and mGluR5 knockout mice (Lu et al. 1997) as described previously (Huber et al. 2000). For most experiments, CA3 was removed immediately after sectioning. Slices recovered for 1-2 h at room temperature (rats) or at 30° C. (mice) in artificial cerebrospinal fluid (ACSF) containing (in mM) 124 NaCl, 5 KCl, 1.25 NaH2PO4, 26 NaHCO3, 1 MgCl2, 2 CaCl2, and 10 dextrose, saturated with 95% O2-5% CO2. For recording, slices were placed in a submersion recording chamber and perfused with 30° C. ACSF at a rate of 2 ml/min.
Synaptically evoked field potentials (FPs) were recorded from area CA1 as described previously. […]
The group data were analyzed as follows: 1) the initial slopes of the FPs and excitatory postsynaptic potentials (EPSPs), or the amplitude of the excitatory postsynaptic currents (EPSCs), for each experiment were expressed as percentages of the preconditioning or DHPG baseline average, 2) the time scale in each experiment was converted to time from the onset of conditioning or DHPG, and 3) the time-matched, normalized data were averaged across experiments and expressed in the text and figures as the means ±SE. […]

[2] = system: hippocampal area CA1 slices; experiment: Field potential (FP) recordings in area CA1 of rat hippocampal slices (DHPG-LTD); assay type: cell-based, Long Evans rats; conditions: for FP, % of pre-DHPG baseline (synaptic responses stabilized at a depressed level): after drug wash out
Procedure: as §1
Synaptically evoked field potentials (FPs) were recorded from area CA1 as described previously. Sharp microelectrode and whole cell voltage-clamp recordings were made using Axoclamp 2B and Axopatch 1D amplifiers (Axon Instruments), respectively. Sharp electrodes (80-120 M Ω) were filled with 3 M K-acetate and 10 mM KCl; patch pipettes (3-7 M Ω) were filled with (in mM) 134 K-gluconate, 6 KCl, 4 NaCl, 10 HEPES, 0.2 EGTA, 4 MgATP, 0.3 TrisGTP, and 14 phosphocreatine. The pH of the internal solution was adjusted to 7.25 with KOH, and the osmolarity was adjusted to 300 mOsm with H2O or sucrose. Only experiments in which there was less than a 15% change in series resistance were included in the analysis. Waveforms were filtered at 2 kHz and acquired and digitized at 10 kHz on a PC using Experimenter's Workbench (DataWave Systems, Boulder, Colo.).
Baseline responses were collected every 10-30 s using a stimulation intensity (10-30 μA; 0.2 ms) yielding 50-60% of the maximal response. Experiments in which there was a>5% drift in the response magnitude during the 20-min baseline period before DHPG or LFS were excluded from further analysis. All experiments with mGluR5 KO mice used wildtype littermates as controls and were performed blind to the genotype, later determined by Therion (Troy, N.Y.). LFS consisted of 900 pulses at 1 Hz. PP-LFS consisted of 900 pairs of stimuli (50-ms interstimulus interval) delivered at 1 Hz. In saturation experiments, stimulus duration was increased from 0.2 to 0.4 ms during PP-LFS.
The group data were analyzed as follows: 1) the initial slopes of the FPs and excitatory postsynaptic potentials (EPSPs), or the amplitude of the excitatory postsynaptic currents (EPSCs), for each experiment were expressed as percentages of the preconditioning or DHPG baseline average, 2) the time scale in each experiment was converted to time from the onset of conditioning or DHPG, and 3) the time-matched, normalized data were averaged across experiments and expressed in the text and figures as the means ±SE. Significant differences between groups were determined using an independent t-test or ANOVA performed on a 5-min average taken 1 h after LFS or DHPG application.
R,S-DHPG and D-2-amino-5-phosphonopentanoic acid (D-AP5) was purchased from Tocris (St. Louis, Mo.); all other chemicals were from Sigma Chemical (St Louis, Mo.). DHPG was prepared as a 100 times stock in H2O, aliquoted and stored at −20° C. Fresh stocks were made once a week. A 10 times stock of AP5 was prepared in ACSF and stored at 4° C. These stocks were diluted in ACSF to achieve their final concentrations. Picrotoxin was dissolved directly into ACSF immediately before use.

[3] = system: cultured hippocampal neurons; experiment: Immunocytochemical localization of surface synaptic receptors (GluR2, GluR1, NR1, GABAAβ1); assay type: cell-based, rat; conditions: for GluR1-positive synapses: cycloheximide 60 μM applied 15 min before DHPG where named
Description: We next determined if the DHPG-induced increase in internalized AMPARs is accompanied by a net decrease in surface-expressed receptor clusters at synapses. At various intervals after DHPG washout, cells were fixed and surface GluR2 or GluR1 was labeled with N-terminal antibodies without permeabilization. The cultures were then permeabilized, and synapses were labeled using an antibody against the presynaptic marker synapsin I or synaptophysin coupled to the appropriate secondary antibody. Under control conditions, most synapses were immunoreactive for AMPAR clusters (GluR2, 80.6±9.0%; n=10 cells, 200 synapses, FIGS. 5A-D; GluR1, 72.5±4.7%; n=15 cells, 225 synapses; FIGS. 5E and F).
Following experimental treatment, low-density cultures were fixed in 4% paraformaldehyde with 4% sucrose for 5 min. Cultures were rinsed in PBS and then blocked in PBS with 20% fetal bovine serum for 1 h. Cultures were stained with N-terminal receptor antibodies overnight at 4° C. (GluR2, 1:100, Chemicon, Ternecula, California; GluR1, 1:100, gift of R. Huganir; NR1, 1:500, Chemicon MAB363; GABAAβ1, 1:100 Santa Cruz Biologicals, Santa Cruz, Calif.). Cultures were then rinsed in blocking buffer containing 0.1% Triton-X for 20 min and exposed to antibodies directed against presynaptic proteins (synapsin 1, 1:1000, Chemicon; synaptophysin, 1:100, Boehringer Manheim, Irvine, Calif.) for 1 h at room temperature. Cultures were then rinsed and exposed to the appropriate fluorescent secondary antibodies (Jackson Immunoresearch, West Grove, Pa.).
Microscopy was performed with a Nikon E800 microscope using a 60×1.4 NA objective (Melville, N.Y.). Fluorescence images were collected with a Sensys cooled CCD camera and analyzed using IP-Labs software. Additional images were collected with a Olympus Flowview confocal microscope with a 60×1.2 NA objective. All analyses were performed blind to the stimulation history of the culture. Microscopic fields had 1-3 neurons displaying smooth soma and generally healthy morphology with multiple distinct processes. Immunofluorescence was analyzed along the proximal 50 μm of 3 or more dendrites per neuron. Immunoreactive puncta were defined as discrete points along the dendrite with fluorescence intensity twice the background staining of the neuron. Five cells were analyzed per culture and 3-6 cultures were analyzed per condition. Separate controls were performed with each experiment and a Student's t-test was used to determine statistical significance. Data are expressed as puncta per 10 μm of dendrite unless stated otherwise.

NC(C(=O)O)c1cc(O)cc(O)c1 (racemic) [DHPG, (RS)-3,5-dihydroxyphenylglycine]
EPSP slope after DHPG (LTD), % of baseline ([1]; sharp electrode recording): 61±5% | EPSC amplitude after DHPG (LTD), % of baseline ([1]; whole cell voltage clamp at −70 mV): 69±5% | FP slope, % of pre-DHPG baseline after saturation of mGluR-dependent LTD ([2]; DHPG 50 μM applied after PP-LFS in D-AP5 50 μM): 100±5% | FP, % of pre-DHPG baseline (synaptic responses stabilized at a depressed level) ([2]; DHPG 50 μM, 5 min): 69±5% | DHPG-LTD, two-pathway experiment, unstimulated input ([2]; DHPG 50 μM, 5 min, input not stimulated during DHPG): 68±5% | DHPG-LTD, two-pathway experiment, stimulated input ([2]; DHPG 50 μM, 5 min, input stimulated during DHPG): 62±4% | magnitude of DHPG-LTD, interleaved control slices without AP5 ([2]; DHPG 50 μM, 5 min, no AP5): 85±3% | FP, % of pre-DHPG baseline (synaptic responses stabilized at a depressed level) ([2]; DHPG 100 μM, 5 min): 48±1% | FP slope, % of pre-DHPG baseline after saturation of NMDAR-dependent LTD ([2]; DHPG applied after repeated episodes of LFS): 81±5% | GluR1-positive synapses ([3]; 15 min after DHPG): 29.3±5.4% | NR1-positive synapses ([3]; 15 minutes after DHPG treatment): 28±6% | change in synapsin puncta density (in words) ([3]; 1 h after DHPG): no change | synapsin-labeled puncta with GABAAβ1 clusters ([3]; 60 min after DHPG treatment): 10.9±2% | GluR1-positive synapses ([3]; 60 min after DHPG): 20.0±12.0% | synapses with surface staining for GluR2 ([3]; 1 hour after DHPG treatment): 40.8±11% | NR1-positive synapses ([3]; 60 minutes after DHPG treatment, with cycloheximide where named): 21±3%
